The test system of data set [1] is α-SMA expression in MRC5 cells. The note with it: stated as known; cited from earlier work.
The subject of a further data set is F-actin in MRC5 cells. The data set can be described thus: inhibition of F-actin formation in TGF-β1-treated MRC5 cells (confocal imaging). The data set is classed as cell-based, human. The settings on record: MRC5, nintedanib 1 μM, TGF-β1 5 ng/mL, 70 hours. How it is done: (§1) It is known that when the process of pulmonary fibrosis results in structural changes in cells, the level of F-actin increases. Therefore, to confirm the therapeutic efficacy of the compounds of the present invention for pulmonary fibrosis-related diseases, the structural changes of cells after treating fibrosis-induced MRC5 with the compounds of the present invention were measured by the degree of inhibition of F-actin and α-SMA formation.
(§2) Specifically, MRC5 cells were treated with Compound 32 (10 μM) or Compound 42 (10 μM) according to the present invention, CK-666 (actin polymerization inhibitor, 10 μM), nintedanib (1 μM), or DMSO, which had been dissolved in a 0.5% fetal bovine serum (FBS)-containing medium, and 2 hours later, the cells were treated with TGF-β1 (5 ng/mL) to cause fibrosis. Due to strong cytotoxicity of the drug of nintedanib, all cells die when treated with nintedanib at the same concentration (10 μM) as that of the compound of the present invention, so it is impossible to conduct a comparative experiment. Therefore, the effect was confirmed by treating the cells with 1 μM nintedanib. 70 hours later, the cells were fixed with a 2% paraformaldehyde solution for 10 minutes, treated with a 0.1% Triton X-100 solution for 10 minutes to provide cell membrane permeability, and treated with a 1% bovine serum albumin (BSA) solution to prevent non-specific binding. […] High-resolution F-actin images acquired with a STELLARIS 5 confocal microscope (Leica) were quantitatively represented by standardizing F-actin stained with rhodamine phalloidin using Alexa Fluor™ Plus 488-labeled GAPDH using self-developed analysis software through programming. […] High-resolution α-SMA images acquired with a STELLARIS 5 confocal microscope (Leica) were quantitatively represented by standardizing α-SMA stained with an anti-α-SMA-FITC antibody with Alexa Fluor™ Plus 488-labeled GAPDH using self-developed analysis software through programming.

The next data set relates to MRC5 cells. The data set can be described thus: cytotoxicity in MRC5 cells. It is filed as cell-based, human. The note with it: 10 μM.
The test system of the next data set is α-SMA in MRC5 cells. The experiment in a line: inhibition of α-SMA formation in TGF-β1-treated MRC5 cells (confocal imaging). It is filed as cell-based, human. The note with it: MRC5, nintedanib 1 μM, TGF-β1 5 ng/mL, 70 hours. Here is the method: as §1, §2
The conditions of data set [2]: cited from earlier work.

Molecules are shown by their SMILES.

With `COC(=O)c1ccc2c(c1)NC(=O)/C2=C(\Nc1ccc(N(C)C(=O)CN2CCN(C)CC2)cc1)c1ccccc1` [nintedanib], in data set [1], the α-SMA inhibitory activity is listed as 0%. In the data set with F-actin in MRC5 cells, the F-actin formation result is “did not inhibit”. Moreover, in the data set on MRC5 cells, the cytotoxicity entry is “all cells die”. Besides, the “effect of inhibiting α-SMA formation” value in the data set with α-SMA in MRC5 cells is “lower than Compounds 32 and 42”. The therapeutic effect in data set [2] (IPF treatment, stated as known) is on record as 10%. Further, the lung function improvement result in data set [2] (clinical use as therapeutic drug for pulmonary fibrosis) is “about 10%”.

Source of the values: patent publication US20260265189A1, “NOVEL COMPOUND, AND PHARMACEUTICAL COMPOSITION COMPRISING SAME AS ACTIVE INGREDIENT” (SAPIENSBIO INC., priority 2022, published 2026).
